The source made the active and inactive calls.
Legend:
[1] = molecular target: Eukaryotic translation initiation factor 4H (Homo sapiens, UniProt Q15056); test: eIF4H binding inhibition – biochemical, uHTS, fluorescence polarization, translation initiation inhibitor project, primary screen (AID 2012)
[2] = molecular target: T1, Heat shock factor protein 1 (Mus musculus, UniProt P38532); test: decrease of HSF1-responsive luciferase luminescence – cell-based, NIH3T3, dose retest, confirmation (AID 2382); format: functional;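 further: NIH3T3 fibroblasts with HSF1-driven luciferase reporter stressed by proteasome inhibitor MG132; luminescence from HSF1-driven luciferase expression after 8 hours of MG132 stress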
T1 sequence (P38532 whole entry): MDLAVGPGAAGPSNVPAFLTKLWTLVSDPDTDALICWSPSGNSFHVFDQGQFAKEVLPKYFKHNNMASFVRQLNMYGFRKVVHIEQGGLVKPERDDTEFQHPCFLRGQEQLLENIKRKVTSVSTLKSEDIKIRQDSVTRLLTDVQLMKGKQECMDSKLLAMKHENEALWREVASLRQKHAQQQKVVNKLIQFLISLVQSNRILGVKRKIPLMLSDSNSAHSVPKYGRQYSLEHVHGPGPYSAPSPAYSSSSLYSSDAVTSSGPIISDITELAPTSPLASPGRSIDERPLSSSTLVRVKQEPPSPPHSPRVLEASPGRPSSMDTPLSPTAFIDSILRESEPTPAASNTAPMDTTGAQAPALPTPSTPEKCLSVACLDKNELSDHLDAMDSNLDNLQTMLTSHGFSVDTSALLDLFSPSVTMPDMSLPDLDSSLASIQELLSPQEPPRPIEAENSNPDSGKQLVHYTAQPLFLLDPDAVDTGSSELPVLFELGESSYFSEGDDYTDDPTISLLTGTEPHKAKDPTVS

[3] = molecular target: Polyadenylate-binding protein 1 (Homo sapiens, UniProt P11940); test: blockers of PABP interaction with poly(A) – biochemical, fluorescence polarization, […] (AID 2014)
[4] = molecular target: DNA dC->dU-editing enzyme APOBEC-3A (Homo sapiens, UniProt P31941); test: A3A deaminase inhibition for selectivity – biochemical, dose response (AID 504722); format: functional
[5] = molecular target: Glucose-6-phosphate 1-dehydrogenase (Homo sapiens, UniProt P11413); test: inhibition of Homo sapiens G6PD, dose series – biochemical, fluorescence, selectivity assay for P. falciparum G6PD inhibitor project, dose response (AID 504792); format: functional
[6] = molecular target: DNA dC->dU-editing enzyme APOBEC-3G (Homo sapiens, UniProt Q9HC16); test: Dose Response confirmation of small molecule APOBEC3G DNA Deaminase Inhibitors via a fluorescence-based single-stranded DNA deaminase assay. [Related pubchem assays (depositor defined):AID493012, AID493028]; format: functional
[7] = molecular target: Cytochrome P450 2D6 (Homo sapiens, UniProt P10635); test: qHTS Assay for Inhibitors and Substrates of Cytochrome P450 2D6. [Related pubchem assays: 410 ]; format: ADME; details: read-out: Potency
[8] = molecular target: Cytochrome P450 3A4 (Homo sapiens, UniProt P08684); details: Potency;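 further: confirmatory qHTS run detecting inhibitors and substrates of CYP3A4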
[9] = tested on: Streptococcus sp. 'group A'; test: Streptococcus pyogenes SK(-)GAS viability under kanamycin – luminescence, BacTiterGlo, confirmation, counter-screen for streptokinase expression inhibitor project, dose response (AID 1900); format: functional, organism-based
[10] = molecular target: T2, Streptokinase A (Streptococcus pyogenes serotype M1, UniProt P10520); test: viability-normalized secreted streptokinase activity reduction – plasminogen activation absorbance, OD405, dose response (AID 1914); format: functional, Streptococcus pyogenes M1 GAS;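 further: secreted streptokinase activity via plasminogen activation per viability signal from cell pellet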
T2 sequence (P10520 whole entry): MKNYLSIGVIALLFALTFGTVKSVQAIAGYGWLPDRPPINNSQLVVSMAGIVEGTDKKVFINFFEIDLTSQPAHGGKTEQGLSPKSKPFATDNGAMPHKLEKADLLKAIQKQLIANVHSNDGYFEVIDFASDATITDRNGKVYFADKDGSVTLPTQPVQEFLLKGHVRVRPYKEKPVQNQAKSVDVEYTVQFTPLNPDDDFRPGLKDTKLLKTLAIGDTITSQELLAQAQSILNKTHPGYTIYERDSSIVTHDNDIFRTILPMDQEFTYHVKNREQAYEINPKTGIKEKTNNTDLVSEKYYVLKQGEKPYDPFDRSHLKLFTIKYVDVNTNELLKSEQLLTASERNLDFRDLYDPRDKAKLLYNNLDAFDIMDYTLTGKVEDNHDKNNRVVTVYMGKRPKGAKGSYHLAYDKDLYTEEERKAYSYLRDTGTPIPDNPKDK

[11] = Trypanosoma cruzi growth suppression in host cells – NIH3T3 host cells, beta-gal luminescence, confirmation (AID 2044); format: functional, cell-based;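 further: intracellular parasites grown in NIH/3T3 mouse fibroblasts as host cells; luminescent beta-galactosidase reporter signal from transgenic T. cruzi replicating inside host cells; inhibitors lower the luminescence signal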
[12] = NIH3T3 cell viability loss – ATP luminescence, mouse fibroblasts, counter-screen, dose response (AID 2010); format: functional, cell-based;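 further: cells exposed to compound for about 90 hours before reading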
[13] = tested on: Streptococcus; test: GAS UMAA2166 growth inhibition – luminescence, BacTiterGlo, counter-screen for streptokinase expression inhibitor project, dose response (AID 1915); format: functional, organism-based;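 further: potency for reduction of bacterial viability or growth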
[14] = molecular target: DNA damage-inducible transcript 3 protein (Mus musculus, UniProt P35639); format: functional, Cricetulus griseus
[15] = NIH-3T3 fibroblast cytotoxicity, dose response, cytotoxicity control, cell-based, fluorescence, Alamar Blue, secondary assay (AID 2327); format: functional;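 further: NIH-3T3 mouse fibroblasts cultured with fluconazole at 8 µg/mL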
[16] = Counterscreen for IDE inhibitors: Luminescence-based cell-based high throughput dose response assay to identify compounds that are cytotoxic to HEK cells. [Related pubchem assays: 434962 (Primary screen (IDE inhibitors in singlicate)), 449730 (Counterscreen (Cytotoxicity in triplicate)), 435028 (Confirmation (IDE inhibitors in triplicate)) …; format: functional; details: HEK293
[17] = fluconazole-exposed Candida albicans growth modulators – fluorescence, retest, confirmation (AID 2467); format: functional, cell-based
[18] = HPDE-C7 pancreatic duct cell viability loss – fluorescence, HTS (AID 430); format: functional, cell-based; details: Homo sapiens
[19] = microbe, parasite or virus in culture; format: functional; details: Mycobacterium tuberculosis
[20] = viability loss of HPDE-C7K cells – cell-based, fluorescence, HTS, primary screen (AID 431); format: functional; details: Homo sapiens
[21] = molecular target: T3, Insulin-degrading enzyme (Homo sapiens, UniProt P14735); test: Dose Response: Fluorescence polarization-based cell-based high throughput dose response assay for inhibitors of insulin-degrading enzyme (IDE). [Related pubchem assays: 434962 (Primary screen (IDE inhibitors in singlicate)), 449730 (Counterscreen (Cytotoxicity in triplicate)), 435028 (Confirmation (IDE inhibitors in triplicate)), 434984 (Summary …; format: functional
T3 sequence (P14735 whole entry): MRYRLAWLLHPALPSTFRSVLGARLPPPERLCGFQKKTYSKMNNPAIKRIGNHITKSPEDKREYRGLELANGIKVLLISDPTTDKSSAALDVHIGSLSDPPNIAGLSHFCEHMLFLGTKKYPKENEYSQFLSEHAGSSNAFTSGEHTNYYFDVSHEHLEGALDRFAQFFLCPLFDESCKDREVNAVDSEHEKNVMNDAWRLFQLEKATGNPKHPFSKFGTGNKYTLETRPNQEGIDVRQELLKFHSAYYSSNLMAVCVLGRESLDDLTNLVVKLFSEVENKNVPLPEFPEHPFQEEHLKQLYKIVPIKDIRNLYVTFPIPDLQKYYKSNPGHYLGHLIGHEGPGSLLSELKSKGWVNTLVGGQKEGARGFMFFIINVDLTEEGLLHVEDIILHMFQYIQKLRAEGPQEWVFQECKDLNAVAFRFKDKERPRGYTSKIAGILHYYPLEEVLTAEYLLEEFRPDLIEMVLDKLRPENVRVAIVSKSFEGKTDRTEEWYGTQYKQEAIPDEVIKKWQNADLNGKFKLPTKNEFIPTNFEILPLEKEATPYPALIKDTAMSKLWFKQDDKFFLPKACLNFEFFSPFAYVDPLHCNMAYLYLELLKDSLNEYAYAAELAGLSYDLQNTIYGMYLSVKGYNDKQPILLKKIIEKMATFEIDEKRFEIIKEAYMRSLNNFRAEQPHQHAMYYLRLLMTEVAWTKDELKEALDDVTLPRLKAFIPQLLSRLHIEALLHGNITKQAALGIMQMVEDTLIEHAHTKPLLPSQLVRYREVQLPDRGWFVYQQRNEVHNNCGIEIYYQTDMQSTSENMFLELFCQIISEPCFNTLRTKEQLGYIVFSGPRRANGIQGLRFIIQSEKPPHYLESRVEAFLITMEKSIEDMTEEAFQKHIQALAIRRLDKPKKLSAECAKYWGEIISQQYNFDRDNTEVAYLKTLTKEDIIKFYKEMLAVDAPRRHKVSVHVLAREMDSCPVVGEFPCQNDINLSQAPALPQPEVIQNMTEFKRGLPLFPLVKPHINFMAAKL

[22] = molecular target: C-C chemokine receptor type 6 (Homo sapiens, UniProt P51684); test: antagonism of CCR6 beta-arrestin recruitment – cell-based, luminescent beta-arrestin readout, dose response (AID 504728); format: functional
[23] = molecular target: Beta-galactosidase (Escherichia coli, UniProt Q8VNN2); test: detection-enzyme interference by beta-gal modulators – biochemical, E. coli enzyme, set 3, artefact control for CCR6 antagonist project, dose response (AID 504712); format: functional
[24] = tested on: INS1; test: INS-1E survival protection against cytokine death – cell-based, luminescence, retest, dose response (AID 449756); format: functional; details: Rattus norvegicus;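 further: cell death triggered by IL-1 beta plus TNF-alpha plus IFN-gamma mixture; protective hits raise ATP signal compared with cytokine alone wells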
[25] = blockers of HIV-1 envelope-mediated cell-cell fusion – cherry-pick, dose response (AID 652057); format: functional, cell-based
[26] = viability loss in CEM21 cells – cell-based, CellTiter-Glo luminescence, cherry-picked, cytotoxicity control for viral fusion inhibitor project, dose response (AID 652042); format: functional;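 further: potency for signal decrease meaning cytotoxicity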
[27] = blockers of HIV-1 ZM109 envelope-driven cell-cell fusion – HeLa effector, CEM target cells, luciferase, cherry-pick, dose response (AID 652058); format: functional, cell-based;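 further: luciferase signal from HIV-1 Env mediated cell-cell fusion of effector and target cells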
[28] = HIV-1 AD8 envelope cell-cell fusion blockers – cherry-pick, dose response (AID 652062); format: functional, cell-based;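 further: luciferase signal from cell-cell fusion driven by HIV-1 clade B AD8 Env; potency is for inhibitors of fusion seen as a drop in luminescence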

Chain of Cytochrome P450 3A4 (P08684 whole entry): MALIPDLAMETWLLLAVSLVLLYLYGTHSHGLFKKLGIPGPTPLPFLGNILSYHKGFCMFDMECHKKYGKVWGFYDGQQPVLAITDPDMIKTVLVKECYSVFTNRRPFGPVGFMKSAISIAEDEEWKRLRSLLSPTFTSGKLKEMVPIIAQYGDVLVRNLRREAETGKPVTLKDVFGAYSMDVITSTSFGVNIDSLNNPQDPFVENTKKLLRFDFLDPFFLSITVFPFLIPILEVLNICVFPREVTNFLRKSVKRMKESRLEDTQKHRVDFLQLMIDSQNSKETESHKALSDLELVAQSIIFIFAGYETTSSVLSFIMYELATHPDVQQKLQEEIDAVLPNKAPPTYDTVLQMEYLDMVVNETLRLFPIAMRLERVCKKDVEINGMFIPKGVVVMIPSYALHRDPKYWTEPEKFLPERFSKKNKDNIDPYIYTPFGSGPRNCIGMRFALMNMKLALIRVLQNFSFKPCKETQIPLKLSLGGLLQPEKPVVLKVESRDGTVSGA
Chain of Cytochrome P450 2D6 (P10635 whole entry): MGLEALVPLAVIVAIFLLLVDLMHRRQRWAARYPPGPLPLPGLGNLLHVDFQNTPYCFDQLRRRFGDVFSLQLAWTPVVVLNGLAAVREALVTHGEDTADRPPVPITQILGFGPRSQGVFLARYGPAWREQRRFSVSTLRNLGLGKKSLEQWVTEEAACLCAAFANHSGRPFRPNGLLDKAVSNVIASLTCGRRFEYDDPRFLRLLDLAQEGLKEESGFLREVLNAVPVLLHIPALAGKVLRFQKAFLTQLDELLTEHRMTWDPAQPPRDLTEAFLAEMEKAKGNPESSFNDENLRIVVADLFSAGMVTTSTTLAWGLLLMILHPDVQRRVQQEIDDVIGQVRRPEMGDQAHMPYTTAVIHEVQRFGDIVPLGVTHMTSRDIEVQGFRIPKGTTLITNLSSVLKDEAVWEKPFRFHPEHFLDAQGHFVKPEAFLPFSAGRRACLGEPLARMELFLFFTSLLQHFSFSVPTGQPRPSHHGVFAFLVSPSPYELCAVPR
Chain of Beta-galactosidase (Q8VNN2 whole entry): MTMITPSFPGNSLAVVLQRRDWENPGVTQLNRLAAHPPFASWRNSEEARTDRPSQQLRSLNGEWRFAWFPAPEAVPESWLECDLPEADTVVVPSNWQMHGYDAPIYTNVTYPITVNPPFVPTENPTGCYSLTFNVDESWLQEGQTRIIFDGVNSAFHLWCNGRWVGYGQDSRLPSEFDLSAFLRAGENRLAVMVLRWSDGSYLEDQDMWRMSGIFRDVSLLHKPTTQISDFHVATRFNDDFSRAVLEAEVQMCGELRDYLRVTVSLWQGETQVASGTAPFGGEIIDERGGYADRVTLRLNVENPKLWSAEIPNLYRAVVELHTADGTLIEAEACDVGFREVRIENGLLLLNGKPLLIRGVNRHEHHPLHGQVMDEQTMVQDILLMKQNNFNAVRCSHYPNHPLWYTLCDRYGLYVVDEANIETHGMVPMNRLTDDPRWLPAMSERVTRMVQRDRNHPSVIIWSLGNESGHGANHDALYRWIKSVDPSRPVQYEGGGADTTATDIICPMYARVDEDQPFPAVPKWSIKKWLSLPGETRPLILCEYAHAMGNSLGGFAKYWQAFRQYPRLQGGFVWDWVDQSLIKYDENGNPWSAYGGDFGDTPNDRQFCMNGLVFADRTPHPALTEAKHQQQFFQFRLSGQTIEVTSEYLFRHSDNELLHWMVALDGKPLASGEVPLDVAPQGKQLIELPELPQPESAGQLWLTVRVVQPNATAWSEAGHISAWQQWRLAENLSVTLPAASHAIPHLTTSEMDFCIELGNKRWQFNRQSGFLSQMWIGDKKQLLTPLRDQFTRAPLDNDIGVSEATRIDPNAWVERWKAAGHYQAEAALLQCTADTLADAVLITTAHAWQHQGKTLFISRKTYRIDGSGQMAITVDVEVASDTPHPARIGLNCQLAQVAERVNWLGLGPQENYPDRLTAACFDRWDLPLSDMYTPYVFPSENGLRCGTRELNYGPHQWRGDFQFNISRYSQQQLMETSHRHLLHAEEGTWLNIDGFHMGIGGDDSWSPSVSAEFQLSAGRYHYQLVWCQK
Chain of C-C chemokine receptor type 6 (P51684 whole entry): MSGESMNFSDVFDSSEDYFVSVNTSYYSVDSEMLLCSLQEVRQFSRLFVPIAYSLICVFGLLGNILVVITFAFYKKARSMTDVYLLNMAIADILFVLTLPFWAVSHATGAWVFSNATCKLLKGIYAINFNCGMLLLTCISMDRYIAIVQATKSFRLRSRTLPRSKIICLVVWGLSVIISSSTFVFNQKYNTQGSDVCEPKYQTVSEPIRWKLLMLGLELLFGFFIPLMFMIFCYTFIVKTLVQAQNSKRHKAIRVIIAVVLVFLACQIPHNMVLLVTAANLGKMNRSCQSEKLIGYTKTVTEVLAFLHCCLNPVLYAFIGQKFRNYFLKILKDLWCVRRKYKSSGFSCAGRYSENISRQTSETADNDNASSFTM
Chain of DNA damage-inducible transcript 3 protein (P35639 whole entry): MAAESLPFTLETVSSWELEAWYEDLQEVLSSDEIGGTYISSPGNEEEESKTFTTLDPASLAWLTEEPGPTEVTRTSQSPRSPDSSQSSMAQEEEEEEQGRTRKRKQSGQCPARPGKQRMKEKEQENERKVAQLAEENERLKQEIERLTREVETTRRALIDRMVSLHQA
Chain of DNA dC->dU-editing enzyme APOBEC-3A (P31941 whole entry): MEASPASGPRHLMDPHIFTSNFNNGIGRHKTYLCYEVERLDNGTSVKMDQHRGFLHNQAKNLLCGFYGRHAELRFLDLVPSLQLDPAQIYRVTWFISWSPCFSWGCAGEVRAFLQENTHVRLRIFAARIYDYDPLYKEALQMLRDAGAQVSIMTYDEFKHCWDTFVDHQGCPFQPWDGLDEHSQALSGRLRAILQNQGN
Chain of Glucose-6-phosphate 1-dehydrogenase (P11413 whole entry): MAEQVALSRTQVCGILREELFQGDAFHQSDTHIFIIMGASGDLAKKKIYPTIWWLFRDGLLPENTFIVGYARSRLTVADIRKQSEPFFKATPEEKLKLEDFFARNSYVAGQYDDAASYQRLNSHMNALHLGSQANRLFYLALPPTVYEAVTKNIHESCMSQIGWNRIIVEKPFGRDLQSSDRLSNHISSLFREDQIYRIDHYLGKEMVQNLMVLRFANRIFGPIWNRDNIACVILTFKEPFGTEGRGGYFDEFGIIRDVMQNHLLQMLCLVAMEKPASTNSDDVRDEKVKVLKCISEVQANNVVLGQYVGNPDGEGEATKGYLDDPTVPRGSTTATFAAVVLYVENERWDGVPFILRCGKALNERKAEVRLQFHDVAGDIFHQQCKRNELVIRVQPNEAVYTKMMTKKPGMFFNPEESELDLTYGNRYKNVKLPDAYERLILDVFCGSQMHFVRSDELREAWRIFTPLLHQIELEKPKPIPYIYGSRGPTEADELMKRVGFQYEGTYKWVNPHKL
Chain of Polyadenylate-binding protein 1 (P11940 whole entry): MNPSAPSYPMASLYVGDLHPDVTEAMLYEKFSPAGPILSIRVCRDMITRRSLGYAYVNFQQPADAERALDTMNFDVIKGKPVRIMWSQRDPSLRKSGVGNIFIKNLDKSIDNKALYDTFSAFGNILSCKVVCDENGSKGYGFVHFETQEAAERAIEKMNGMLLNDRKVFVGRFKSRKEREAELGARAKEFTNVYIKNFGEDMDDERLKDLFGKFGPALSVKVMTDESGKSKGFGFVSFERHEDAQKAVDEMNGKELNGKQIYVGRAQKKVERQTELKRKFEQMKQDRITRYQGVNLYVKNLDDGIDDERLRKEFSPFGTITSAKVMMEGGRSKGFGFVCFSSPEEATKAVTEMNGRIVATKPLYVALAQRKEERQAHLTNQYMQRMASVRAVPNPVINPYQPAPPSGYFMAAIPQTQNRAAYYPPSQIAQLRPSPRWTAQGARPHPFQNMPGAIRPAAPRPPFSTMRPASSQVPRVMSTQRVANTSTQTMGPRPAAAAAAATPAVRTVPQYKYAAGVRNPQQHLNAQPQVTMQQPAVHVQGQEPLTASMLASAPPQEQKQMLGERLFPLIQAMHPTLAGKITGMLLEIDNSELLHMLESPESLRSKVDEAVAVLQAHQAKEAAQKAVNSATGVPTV
Chain of DNA dC->dU-editing enzyme APOBEC-3G (Q9HC16 whole entry): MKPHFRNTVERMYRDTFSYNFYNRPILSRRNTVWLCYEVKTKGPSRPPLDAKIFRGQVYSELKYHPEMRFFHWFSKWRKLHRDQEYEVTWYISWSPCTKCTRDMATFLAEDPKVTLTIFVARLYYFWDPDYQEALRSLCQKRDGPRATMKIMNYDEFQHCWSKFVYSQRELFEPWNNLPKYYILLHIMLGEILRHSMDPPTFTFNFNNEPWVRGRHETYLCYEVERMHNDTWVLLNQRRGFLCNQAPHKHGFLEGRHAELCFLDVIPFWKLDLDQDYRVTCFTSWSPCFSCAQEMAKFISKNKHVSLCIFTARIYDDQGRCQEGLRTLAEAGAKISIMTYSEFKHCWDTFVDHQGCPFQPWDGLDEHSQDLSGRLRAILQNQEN

## CC(C)Oc1ccc(OCCSc2nc3ccccc3n2CC(=O)O)cc1
[1]
  IC50: > 100 µM (inactive)
[2]
  EC50: > 195 µM (not active)
[3]
  IC50: 11.5 µM (active)

## COc1ccccc1NS(=O)(=O)c1cc(NC(=O)c2ccc(Cl)nc2)ccc1N1CCCC1
[4]
  IC50: > 100 µM (inactive)
[5]
  IC50: > 80 µM (inactive)
[6]
  IC50: 14.3 µM (active)

## CCCCCCC1=Cc2cc(OC)c(OC)cc2C(C(C(C)=O)C(=O)OCC)O1 (stereo not given)
[7]
  AC50: 6.31 µM (inconclusive)
[8]
  AC50: 3.16 µM (inconclusive)

## O=C(Nc1ccccc1-c1nc2ccccc2[nH]1)c1sc2ccccc2c1Cl
[9]
  EC50: 21.3 µM (active)
[10]
  EC50: > 150 µM (not active)
[11]
  EC50: 2.1 µM (active)
[12]
  EC50: > 60 µM (inconclusive)
[13]
  EC50: > 150 µM (not active)
[14]
  Absolute IC50 (CHOP): 10 µM

## CCCn1c(Nc2nc3ccccc3n2C)nc2ccccc21
[15]
  EC50: > 160 µM (inconclusive)
[16]
  IC50: 14.4 µM (not active)
[17]
  EC50: 1.33 µM (active)
[18]
  EC50: 6.72 µM (active)
[19]
  CC50: 13.4 µM (active)
[20]
  EC50: 7.01 µM (active)
[21]
  IC50: > 55.9 µM (not active)
[22]
  IC50: > 66.6 µM (inactive)
[23]
  IC50: > 66.6 µM (inactive)
[24]
  AC50: 7.73 µM (active)
[25]
  AC50: 10.1 µM (active)
[26]
  AC50: 8.31 µM (active)
[27]
  AC50: 8.59 µM (active)
[28]
  AC50: 10.4 µM (active)

## O=c1c(O)c(-c2ccc(O)cc2)oc2cc(O)ccc12 [RESOKAEMPFEROL]
[7]
  AC50: 20 µM (inconclusive)
[8]
  AC50: 39.8 µM (inconclusive)
